How the values were obtained:
Details in all cases: 72 h
Calu-3 [1] = assay: relative viability EC50 (midpoint between 100% and the lowest measured viability); higher = less toxic
HepG2 [2] = assay: as above
Vero E6 [3] = assay: as above
U2OS [4] = assay: as above
Calu-3 [5] = assay: drug sensitivity score (DSS) for viability; higher = more toxic; extreme values may be limits of the assay
HepG2 [6] = assay: as above
Vero E6 [7] = assay: as above
U2OS [8] = assay: as above
Calu-3 [9] = assay: cell viability relative to DMSO; higher = less toxic
HepG2 [10] = assay: as above
Vero E6 [11] = assay: as above
U2OS [12] = assay: as above
Caco-2 [13] = assay: drug sensitivity score (DSS) for viability; higher = more toxic; extreme values may be limits of the assay
Caco-2 [14] = assay: cell viability relative to DMSO; higher = less toxic

| Compound | relative viability EC50 (Calu-3 [1]) | relative viability EC50 (HepG2 [2]) | relative viability EC50 (Vero E6 [3]) | relative viability EC50 (U2OS [4]) | drug sensitivity score (Calu-3 [5]) | drug sensitivity score (HepG2 [6]) | drug sensitivity score (Vero E6 [7]) | drug sensitivity score (U2OS [8]) | cell viability (Calu-3 [9]; 1 nM) | cell viability (Calu-3 [9]; 10 nM) | cell viability (Calu-3 [9]; 100 nM) | cell viability (Calu-3 [9]; 1000 nM) | cell viability (Calu-3 [9]; 10000 nM) | cell viability (HepG2 [10]; 1 nM) | cell viability (HepG2 [10]; 10 nM) | cell viability (HepG2 [10]; 100 nM) | cell viability (HepG2 [10]; 1000 nM) | cell viability (HepG2 [10]; 10000 nM) | cell viability (Vero E6 [11]; 1 nM) | cell viability (Vero E6 [11]; 10 nM) | cell viability (Vero E6 [11]; 100 nM) | cell viability (Vero E6 [11]; 1000 nM) | cell viability (Vero E6 [11]; 10000 nM) | cell viability (U2OS [12]; 1 nM) | cell viability (U2OS [12]; 10 nM) | cell viability (U2OS [12]; 100 nM) | cell viability (U2OS [12]; 1000 nM) | cell viability (U2OS [12]; 10000 nM) | drug sensitivity score (Caco-2 [13]) | cell viability (Caco-2 [14]; 1 nM) | cell viability (Caco-2 [14]; 10 nM) | cell viability (Caco-2 [14]; 100 nM) | cell viability (Caco-2 [14]; 1000 nM) | cell viability (Caco-2 [14]; 10000 nM) |
| --- | --- | --- | --- | --- | --- | --- | --- | --- | --- | --- | --- | --- | --- | --- | --- | --- | --- | --- | --- | --- | --- | --- | --- | --- | --- | --- | --- | --- | --- | --- | --- | --- | --- | --- |
| CSCC[C@H](NC(=O)[C@H](CC(C)C)NC(=O)CNC(=O)[C@H](Cc1ccccc1)NC(=O)[C@H](Cc1ccccc1)NC(=O)[C@H](CCC(N)=O)NC(=O)[C@H](CCC(N)=O)NC(=O)[C@@H]1CCCN1C(=O)[C@H](CCCCN)NC(=O)[C@@H]1CCCN1C(=O)[C@@H](N)CCCN=C(N)N)C(N)=O [substance-P] | > 10 µM | > 10 µM | > 10 µM | > 10 µM | 0 | 0 | 0 | 0 | 103% | 98.4% | 102% | 96.5% | 95.6% | 88.1% | 96.3% | 100% | 107% | 105% | 102% | 97.5% | 103% | 102% | 99% | 99.5% | 97.2% | 96.2% | 96.7% | 98.2% | – | – | – | – | – | – |
| O=C(O)Cc1ccccc1Nc1c(Cl)cccc1Cl [diclofenac] | – | – | – | – | 0 | – | 0 | 0 | – | – | – | – | – | – | – | – | – | – | – | – | – | – | – | – | – | – | – | – | – | – | – | – | – | – |
| CCCSc1ccc2[nH]c(NC(=O)OC)nc2c1 [albendazole] | – | 0.824 µM | 1.39 µM | 1.37 µM | 2.4 | 7.8 | 6.5 | 4.9 | 107% | 102% | 111% | 94.7% | 66.4% | 103% | 97.9% | 85.6% | 68.7% | 33.1% | 105% | 95.3% | 104% | 80.1% | 34.6% | 101% | 100% | 94.5% | 81.1% | 47.8% | 2.8 | 87.7% | 98.6% | 96.9% | 88% | 66.7% |
| FC(F)(F)c1cc(NC(=S)Nc2ccc(Br)cc2-c2nnn[nH]2)cc(C(F)(F)F)c1 | > 10 µM | > 10 µM | > 10 µM | > 10 µM | 0 | 0.2 | 0.3 | 0 | 98.8% | 102% | 101% | 103% | 99.3% | 99.3% | 92.7% | 98.7% | 90.4% | 85.6% | 95.8% | 102% | 93.3% | 102% | 83% | 99.9% | 104% | 97.7% | 97.6% | 97.5% | 3.7 | 96.6% | 106% | 95.3% | 88.7% | 57.9% |
| CCNC(=O)[C@@H]1CCCN1C(=O)[C@H](CCCNC(=N)N)NC(=O)[C@H](CC(C)C)NC(=O)[C@@H](CC(C)C)NC(=O)[C@H](Cc1ccc(O)cc1)NC(=O)[C@H](CO)NC(=O)[C@H](Cc1c[nH]c2ccccc12)NC(=O)[C@H](Cc1c[nH]cn1)NC(=O)[C@@H]1CCC(=O)N1 [leuprolide] | > 10 µM | – | > 10 µM | > 10 µM | 0 | – | 0 | 0 | 99.5% | 99.3% | 95% | 110% | 103% | – | – | – | – | – | 102% | 99.3% | 98.6% | 105% | 105% | 92.6% | 96.9% | 103% | 97% | 102% | 0.7 | 107% | 114% | 107% | 114% | 72.2% |
| Cc1cc(C(=O)Nc2nc3cccc(Cl)c3n2[C@@H]2CCCCN(C(=O)/C=C/CN(C)C)C2)ccn1 [EGF816] | 0.512 µM | 2.5 µM | 1.45 µM | > 10 µM | 10.8 | 4.6 | 6.2 | 1 | 102% | 95.9% | 86.9% | 51.6% | 24.6% | 107% | 100% | 96% | 94.5% | 32.1% | 104% | 106% | 102% | 82.1% | 36.8% | 101% | 98.9% | 99.3% | 98.4% | 77.3% | 2.1 | 95.5% | 94.3% | 98.1% | 93.7% | 72.3% |
| CS(=O)(=O)c1ccc(-c2cn3ccccc3n2)cc1 [zolimidine] | – | > 10 µM | > 10 µM | > 10 µM | – | 0 | 0.3 | 0 | – | – | – | – | – | 117% | 104% | 87.3% | 98.6% | 93.8% | 107% | 107% | 105% | 94.4% | 88% | 100% | 94.7% | 94.8% | 93.5% | 95.9% | – | – | – | – | – | – |
| CCCCOc1ccc(CC/C=C2\SC(=O)N(CCN)C2=O)cc1 [K145] | > 10 µM | > 10 µM | > 10 µM | > 10 µM | 0 | 0.6 | 0 | 0 | 92.1% | 108% | 87.1% | 101% | 92.5% | 107% | 102% | 95% | 95.4% | 82.7% | 108% | 103% | 101% | 104% | 92% | 89.3% | 97.1% | 91.4% | 93.1% | 83.1% | 1.7 | 97.9% | 106% | 95.1% | 91.2% | 73.9% |
| O=C(Nc1cccnc1)N1CCC(Cc2cccc(Oc3ccc(C(F)(F)F)cn3)c2)CC1 [PF-3845] | > 10 µM | 3.25 µM | > 10 µM | > 10 µM | 0.5 | 3.6 | 0.6 | 0.6 | 103% | 105% | 104% | 102% | 79.1% | 109% | 102% | 98.3% | 101% | 32.7% | 103% | 96.8% | 89.9% | 101% | 78.7% | 97.3% | 107% | 101% | 98.5% | 82.7% | 2.4 | 99.7% | 103% | 90.3% | 92.4% | 66.9% |
| N[C@@H](Cc1cc(I)c(Oc2ccc(O)c(I)c2)c(I)c1)C(=O)O [liothyronine] | – | – | – | – | 0 | 0 | 1 | 0 | 98.9% | 96.8% | 92.5% | 93.5% | 95% | 102% | 104% | 107% | 96.6% | – | 104% | 92.4% | 92.6% | 88.6% | 91.3% | 97.1% | 97.5% | 93.4% | 96% | 93.5% | 0 | 93.8% | 98.5% | 96.7% | 98.1% | 96.5% |
| O=C(N[C@H](CO)[C@H](O)c1ccc([N+](=O)[O-])cc1)C(Cl)Cl [chloramphenicol] | – | – | – | – | 0 | 1.1 | 0 | 0 | – | – | – | – | – | – | – | – | – | – | – | – | – | – | – | – | – | – | – | – | – | – | – | – | – | – |
| CN1CCN(c2ccc(Nc3ncc4cc(C#N)c(=O)n(C5CCCC5)c4n3)cc2)CC1 | > 10 µM | – | – | – | 0 | 4.2 | 2.2 | 1.5 | 105% | 103% | 98.9% | 87.9% | 111% | 99.8% | 99.7% | 102% | 88.8% | 52.9% | 105% | 107% | 107% | 99.1% | 58.1% | 100% | 98% | 102% | 98.3% | 70% | 2 | 98% | 93.9% | 101% | 92.3% | 74.9% |
| N#CC(=C(/N)Sc1ccccc1N)/C(C#N)=C(/N)Sc1ccccc1N [U-0126] | > 10 µM | 0.953 µM | > 10 µM | > 10 µM | 0 | 6.6 | 1.3 | 0.4 | 94.6% | 102% | 100% | 90.6% | 93.5% | 101% | 95.9% | 94.7% | 70.6% | 41% | 102% | 99.9% | 97.9% | 88.6% | 80.9% | 98.2% | 104% | 96.9% | 98.3% | 84.3% | 3.4 | 100% | 96.8% | 99.3% | 86.4% | 65% |
| CC[C@H](C)C(=O)O[C@H]1C[C@H](O)C=C2C=C[C@H](C)[C@H](CC[C@@H](O)C[C@@H](O)CC(=O)O)[C@H]21 [PRAVASTATIN SODIUM] | […] | […] | […] | […] | 0 | 0 | 0 | 0 | 98.2% | 93.8% | 93.3% | 98.2% | 95.2% | 112% | 105% | 93% | 86.1% | 112% | 98.9% | 109% | 107% | 96.4% | 105% | 97.7% | 100% | 94.2% | 101% | 98.5% | – | – | – | – | – | – |
| COc1ccc(-c2oc3c(CC=C(C)C)c(O[C@@H]4O[C@H](CO)[C@@H](O)[C@H](O)[C@H]4O)cc(O)c3c(=O)c2O[C@@H]2O[C@@H](C)[C@H](O)[C@@H](O)[C@H]2O)cc1 [icariin] | – | – | – | – | 0 | 0 | 0 | 0 | – | – | – | – | – | – | – | – | – | – | – | – | – | – | – | – | – | – | – | – | – | – | – | – | – | – |
| CC(C)(O)[C@@H]1[C@H]2OC(=O)[C@@H]1[C@]1(O)C[C@H]3O[C@]34C(=O)O[C@H]2[C@]14C [picrotin] | – | – | – | – | 0 | 0 | – | 0 | – | – | – | – | – | – | – | – | – | – | – | – | – | – | – | – | – | – | – | – | – | – | – | – | – | – |
| CCN1CCN(C(=O)Cc2ccc(Nc3ncc(F)c(Nc4ccc(C(=O)Nc5ccccc5Cl)cc4)n3)cc2)CC1 [aurora-a-inhibitor-i] | > 10 µM | – | > 10 µM | 3.09 µM | 0.7 | 2.7 | 0.4 | 5 | 101% | 103% | 109% | 94.8% | 84.5% | 91.2% | 90.7% | 89.6% | 93.9% | 64.8% | 97% | 106% | 99.6% | 93.4% | 86.8% | 100% | 99.8% | 99.2% | 99.1% | 12% | 1.2 | 101% | 93.4% | 95.5% | 98% | 74.9% |

Reference: the supplement of paper PMC13380429
